Structures can show the parent of a compound that is named as a salt.
Tested on: Histone H3 Citrullination in Neutrophils
Assay: Citrullination ELISA (Citrullinated Histone H3) in calcium ionophore stimulated neutrophils
Type: cell-based
Conditions: Neutrophil; human neutrophils, 25 μM calcium ionophore, CitH3 ELISA
Method: Neutrophils were isolated according to the EasySep Direct Human Neutrophil Isolation Kit. In short, 50 mL of blood sample was drawn in a vacutainer containing K2EDTA from a healthy donor. To the whole blood, the isolation cocktail of 50 μL/mL was added. Then, in the next step 50 μL/mL of RapidSpheres™ was added to the sample. The sample was mixed evenly with the pipette and incubated for 10 minutes at room temperature. After incubation, PBS containing 1 mM EDTA was added at the ratio of 1:1 to the blood. Then the sample tube was incubated for 10 minutes. The enriched cell suspension was transferred into a new tube and RapidSpheres™ were added at 50 μL/mL to this suspension, mixed and incubated for 10 minutes at room temperature. At this step, the enriched cell suspension was carefully collected as a clear fraction into a fresh tube. Then, previous tube was replaced with the fresh tube containing enriched cell suspension. After the final separation, the clear solution of enriched cell suspension was carefully transferred to fresh tube which was ready to use for the experiment. These cells were then subjected to wash twice with plain RPMI 1640 media without Fetal Bovine Serum (FBS) and centrifuged at 1500 rpm for 5 minutes at room temperature. Cell counts were performed on each sample by Invitrogen cell counter. After the cell count, cell density was adjusted according to the experiment and re-suspended in complete RPMI media containing RPMI1640, 2% BSA and 1 mM CaCl2.
Freshly isolated neutrophils from human donor were seeded at a density of 0.5×10^6 cells in 400 μL cell suspension/well in a 24-well plate and cells were pre-incubated with the compound for 30 minutes by adding 50 μL of the 10× concentration to achieve the final 1× concentration of compound (10 μM, 1 μM and 0.1 μM). 1% DMSO was added in control wells. Then, the cells were stimulated in the presence and absence of calcium ionophore by adding 50 μL/well to achieve the final concentration of 25 μM. Upon incubation for 30 minutes with calcium ionophore, S7 nuclease was added to the wells and incubated for 10 minutes to disrupt NET DNA. Following incubation, 10 μL of 1 mM EDTA was added to inactivate nuclease. Cells were scrapped gently and transferred to the tubes, followed by centrifugation at 1500 rpm for 5 minutes. After centrifugation, supernatant was discarded, and 200 μL of lysis buffer containing PBS and 1× Protease inhibitor was added to the tubes. The obtained lysis was then subjected to mechanical shearing using Geno grinder by spin the plate at 2500 rpm for 10 minutes, followed by collection of supernatant and stored at −20° C. or immediately used for ELISA.
ELISA was performed as per Citrullinated Histone H3 ELISA Kit. All the buffer components from the kit were dissolved according to the manufactures protocol. ELISA Buffer Concentrate (10×) (Item No. 400060) and Wash Buffer Concentrate (400×) (Item No. 400060) along with polysorbate 20 (2000×) (Item No. 400035) was diluted to 1× with milliQ water. The standard for use in the ELISA was prepared as follows: • Obtain eight clean test tubes and label them, #1 through #8. Aliquot 4.9 mL of ELISA Buffer into tube #1. • Aliquot 500 μL of ELISA Buffer into the tubes #2-8. […] This tube is considered as blank, the lowest point on the standard curve.
100 μL of standards or diluted sample was added to the appropriate wells on the 96-well plate. Plates were covered with 96-well cover sheet and incubated for two hours at room temperature on an orbital shaker. The samples and standard were removed from the wells and washed four times with Wash Buffer. After the last wash, Anti-Histone H3 HRP Conjugate (Item No. 501441) (10×) stock solution was diluted in 1×ELISA buffer and 100 μL of the HRP Conjugate working solution was added to each well of the plate and incubated for one hour at room temperature on an orbital shaker. […]

SMILES	IC50 [nM]
Cc1c(-c2cc3ccccc3n2CC2CCOCC2)nc2cc(C(=O)N3CCC[C@@H](N)C3)ccn12 [Compound 11, (R)-(3-aminopiperidin-1-yl)(3-methyl-2-(1-((tetrahydro-2H-pyran-4-yl)methyl)-1H-indol-2-yl)imidazo[1,2-a]pyridin-7-yl)methanone]	100 to 1000
Cc1cc(C(=O)N2CCC[C@@H](N)C2)cc2nc(-c3cc4ccccc4n3CC3CC3)c(C)n12 [Compound 25, (R)-(3-aminopiperidin-1-yl)(2-(1-(cyclopropylmethyl)-1H-indol-2-yl)-3,5-dimethylimidazo[1,2-a]pyridin-7-yl)methanone]	100 to 1000
Cc1cc(C(=O)N2CCC[C@@H](N)C2)cc2nc(-c3cc4ccccc4n3Cc3ccccc3)c(C)n12 [Compound 26, (R)-(3-aminopiperidin-1-yl)(2-(1-benzyl-1H-indol-2-yl)-3,5-dimethylimidazo[1,2-a]pyridin-7-yl)methanone]	< 100
Cc1cccc2cc(-c3nc4cc(C(=O)N5CCC[C@@H](N)C5)ccn4c3C)n(CC3CC3)c12 [Compound 30, (R)-(3-aminopiperidin-1-yl)(2-(1-(cyclopropylmethyl)-7-methyl-1H-indol-2-yl)-3-methylimidazo[1,2-a]pyridin-7-yl)methanone]	100 to 1000
CCn1c(-c2nc3cc(C(=O)N4CCC[C@@H](N)C4)ccn3c2C)cc2cc(F)ccc21 [Compound 39, (R)-(3-aminopiperidin-1-yl)(2-(1-ethyl-5-fluoro-1H-indol-2-yl)-3-methylimidazo[1,2-a]pyridin-7-yl)methanone]	< 100
Cc1c(-c2cc3cccc(Cl)c3n2CC2CC2)nc2cc(C(=O)N3CCC[C@@H](N)C3)ccn12 [Compound 44, (R)-(3-aminopiperidin-1-yl)(2-(7-chloro-1-(cyclopropylmethyl)-1H-indol-2-yl)-3-methylimidazo[1,2-a]pyridin-7-yl)methanone]	< 100
Cc1c(-c2cc3ccc(F)cc3n2CC2CC2)nc2cc(C(=O)N3CCC[C@@H](N)C3)ccn12 [Compound 52, (R)-(3-aminopiperidin-1-yl)(2-(1-(cyclopropylmethyl)-6-fluoro-1H-indol-2-yl)-3-methylimidazo[1,2-a]pyridin-7-yl)methanone trifluoroacetic acid salt]	100 to 1000
COc1cccc(Cn2c(-c3nc4cc(C(=O)N5CCC[C@@H](N)C5)ccn4c3C)cc3cc(F)ccc32)c1 [Compound 53, (R)-(3-aminopiperidin-1-yl)(2-(5-fluoro-1-(3-methoxybenzyl)-1H-indol-2-yl)-3-methylimidazo[1,2-a]pyridin-7-yl)methanone]	100 to 1000
Cc1c(-c2cc3ccc(F)cc3n2Cc2ccc(F)cc2)nc2cc(C(=O)N3CCC[C@@H](N)C3)ccn12 [Compound 54, (R)-(3-aminopiperidin-1-yl)(2-(6-fluoro-1-(4-fluorobenzyl)-1H-indol-2-yl)-3-methylimidazo[1,2-a]pyridin-7-yl)methanone]	< 100
Cc1c(-c2cc3ccccc3n2Cc2ccc(F)cc2)nc2cc(C(=O)N3CCC[C@@H](NC(=O)/C=C/CN(C)C)C3)ccn12 [Compound 56, (R,E)-4-(dimethylamino)-N-(1-(2-(1-(4-fluorobenzyl)-1H-indol-2-yl)-3-methylimidazo[1,2-a]pyridine-7-carbonyl)piperidin-3-yl)but-2-enamide]	> 1000
Cc1c(-c2cc3ccccc3n2CC2CCC2)nc2cc(C(=O)N3CCC[C@@H](N)C3)ccn12 [Compound 61, (R)-(3-aminopiperidin-1-yl)(2-(1-(cyclobutylmethyl)-1H-indol-2-yl)-3-methylimidazo[1,2-a]pyridin-7-yl)methanone]	> 1000

Second part, the compound after the results:

IC50 [nM]	SMILES
< 100	CCn1c(-c2nc3cc(C(=O)N4CCC[C@@H](N)C4)ccn3c2C)cc2ccccc21 [Compound 4, (R)-(3-aminopiperidin-1-yl)(2-(1-ethyl-1H-indol-2-yl)-3-methylimidazo[1,2-a]pyridin-7-yl)methanone]
< 100	Cc1c(-c2cc3ccccc3n2Cc2ccncc2)nc2cc(C(=O)N3CCC[C@@H](N)C3)ccn12 [Compound 10, (R)-(3-aminopiperidin-1-yl)(3-methyl-2-(1-(pyridin-4-ylmethyl)-1H-indol-2-yl)imidazo[1,2-a]pyridin-7-yl)methanone]
< 100	COc1ccc(Cn2c(-c3nc4cc(C(=O)N5CCC[C@@H](N)C5)ccn4c3C)cc3ccccc32)cc1 [Compound 12, (R)-(3-aminopiperidin-1-yl)(2-(1-(4-methoxybenzyl)-1H-indol-2-yl)-3-methylimidazo[1,2-a]pyridin-7-yl)methanone]
100 to 1000	Cc1c(-c2cc3ccccc3n2Cc2ccc(F)cc2)nc2cc(C(=O)N3CCC[C@@H](N)C3)ccn12 [Compound 13, (R)-(3-aminopiperidin-1-yl)(2-(1-(4-fluorobenzyl)-1H-indol-2-yl)-3-methylimidazo[1,2-a]pyridin-7-yl)methanone]
< 100	Cc1c(-c2cc3ccccc3n2Cc2cccnc2)nc2cc(C(=O)N3CCC[C@@H](N)C3)ccn12 [Compound 15, (R)-(3-aminopiperidin-1-yl)(3-methyl-2-(1-(pyridin-3-ylmethyl)-1H-indol-2-yl)imidazo[1,2-a]pyridin-7-yl)methanone]
< 100	Cc1c(-c2cc3ccccc3n2Cc2ccoc2)nc2cc(C(=O)N3CCC[C@@H](N)C3)ccn12 [Compound 37, (R)-(3-aminopiperidin-1-yl)(2-(1-(furan-3-ylmethyl)-1H-indol-2-yl)-3-methylimidazo[1,2-a]pyridin-7-yl)methanone]
100 to 1000	Cc1csc(Cn2c(-c3nc4cc(C(=O)N5CCC[C@@H](N)C5)ccn4c3C)cc3ccccc32)n1 [Compound 41, (R)-(3-aminopiperidin-1-yl)(3-methyl-2-(1-((4-methylthiazol-2-yl)methyl)-1H-indol-2-yl)imidazo[1,2-a]pyridin-7-yl)methanone]
< 100	COc1cccc(Cn2c(-c3nc4cc(C(=O)N5CCC[C@@H](N)C5)ccn4c3C)cc3ccccc32)c1 [Compound 42, (R)-(3-aminopiperidin-1-yl)(2-(1-(3-methoxybenzyl)-1H-indol-2-yl)-3-methylimidazo[1,2-a]pyridin-7-yl)methanone]
< 100	Cc1c(-c2cc3ccccc3n2Cc2ccc(F)cc2)nc2cc(C(=S)N3CCC[C@@H](N)C3)ccn12 [Compound 45, (R)-(3-aminopiperidin-1-yl)(2-(1-(4-fluorobenzyl)-1H-indol-2-yl)-3-methylimidazo[1,2-a]pyridin-7-yl)methanethione]
< 100	Cc1ncc(Cn2c(-c3nc4cc(C(=O)N5CCC[C@@H](N)C5)ccn4c3C)cc3ccccc32)s1 [Compound 49, (R)-(3-aminopiperidin-1-yl)(3-methyl-2-(1-((2-methylthiazol-5-yl)methyl)-1H-indol-2-yl)imidazo[1,2-a]pyridin-7-yl)methanone]
> 1000	COc1ccc2cc(-c3nc4cc(C(=O)N5CCC[C@@H](N)C5)ccn4c3C)n(Cc3cccnc3)c2c1 [Compound 51, (R)-(3-aminopiperidin-1-yl)(2-(6-methoxy-1-(pyridin-3-ylmethyl)-1H-indol-2-yl)-3-methylimidazo[1,2-a]pyridin-7-yl)methanone]
> 1000	Cc1c(-c2cc3ccccc3n2Cc2cncnc2)nc2cc(C(=O)N3CCC[C@@H](N)C3)ccn12 [Compound 58, (R)-(3-aminopiperidin-1-yl)(3-methyl-2-(1-(pyrimidin-5-ylmethyl)-1H-indol-2-yl)imidazo[1,2-a]pyridin-7-yl)methanone trifluoroacetic acid salt]
> 1000	Cc1c(-c2cc3ccccc3n2CC(C)C)nc2cc(C(=O)N3CCC[C@@H](N)C3)ccn12 [Compound 60, (R)-(3-aminopiperidin-1-yl)(2-(1-isobutyl-1H-indol-2-yl)-3-methylimidazo[1,2-a]pyridin-7-yl)methanone]

— patent publication US20220047569A1, “METHOD AND COMPOUND FOR USE, IN TREATING AND/OR PREVENTING NETOSIS” (Jubilant EpiPad LLC, priority 2020, published 2022)
